# Experimental data: patent US8435762B2, “Chimeric ligand-gated ion channels and methods of use thereof” (Howard Hughes Medical Institute, priority 2008, dated 2013)
# “Also recorded” adds a separate entry of the source. Where a name gives a salt, the structure may show the parent alone. Read-outs that look alike come from different tables or passages of the source.
# Tests used:
# [1] = target: T1, α7-5HT3 L141F (Homo sapiens, UniProt P36544, L141F/M226I/T225I); test: fluorescence membrane potential (MP) assay, HEK 293 cells; format: cell-based, human/mouse; conditions: for EC50: read-out: EC50-MP, α7 L141F, IPD 5HT3, value (s.e.m.)
# T1 construct: expressed in transfected cells; host or cells: HEK 293 cells (ATCC CRL-1573)
# T1 sequence (P36544 with tags, fused parts or gaps L141F/T225I/M226I): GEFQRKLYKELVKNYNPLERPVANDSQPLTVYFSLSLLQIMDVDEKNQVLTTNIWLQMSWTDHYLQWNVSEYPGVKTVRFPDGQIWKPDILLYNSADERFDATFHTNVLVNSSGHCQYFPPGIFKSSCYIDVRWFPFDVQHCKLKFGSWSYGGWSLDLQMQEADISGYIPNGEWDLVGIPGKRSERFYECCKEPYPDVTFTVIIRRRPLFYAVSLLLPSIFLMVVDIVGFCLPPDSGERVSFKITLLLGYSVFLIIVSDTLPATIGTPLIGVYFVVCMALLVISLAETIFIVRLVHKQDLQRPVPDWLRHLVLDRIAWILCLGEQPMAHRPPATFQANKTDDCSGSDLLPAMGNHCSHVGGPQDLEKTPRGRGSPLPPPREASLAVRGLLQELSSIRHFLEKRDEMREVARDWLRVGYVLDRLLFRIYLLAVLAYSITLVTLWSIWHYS
# [2] = target: T2, α7-5HT3 wt chimeric receptor (Homo sapiens, UniProt P36544, M226I/T225I); test: as above; format: cell-based, human/mouse; conditions: for activity against α7-5HT3 wt (unmodified) receptor: dose response curves, MP assay; for EC50: read-out: EC50-MP, α7 wt, IPD 5HT3, value (s.e.m.)
# T2 construct: expressed in transfected cells; host or cells: HEK 293 cells
# T2 sequence (P36544 with tags, fused parts or gaps T225I/M226I): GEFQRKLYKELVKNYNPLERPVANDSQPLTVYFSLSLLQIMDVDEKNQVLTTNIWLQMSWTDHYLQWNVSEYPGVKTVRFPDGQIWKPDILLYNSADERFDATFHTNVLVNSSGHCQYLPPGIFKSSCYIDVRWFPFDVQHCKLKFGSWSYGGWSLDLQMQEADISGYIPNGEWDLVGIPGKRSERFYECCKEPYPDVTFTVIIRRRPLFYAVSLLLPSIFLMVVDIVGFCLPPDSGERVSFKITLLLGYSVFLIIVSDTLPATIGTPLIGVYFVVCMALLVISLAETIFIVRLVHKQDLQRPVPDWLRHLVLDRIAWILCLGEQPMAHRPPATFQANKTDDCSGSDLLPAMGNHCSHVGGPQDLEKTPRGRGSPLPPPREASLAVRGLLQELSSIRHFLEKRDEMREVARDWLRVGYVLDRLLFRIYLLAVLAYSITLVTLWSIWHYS
# [3] = target: T3, α7-5HT3 W77F (Homo sapiens, UniProt P36544, M226I/T225I/W77F); test: whole cell voltage clamp recordings (Iss, Ipeak); format: cell-based, human/mouse
# T3 construct: expressed in transfected cells; host or cells: HEK 293 cells (ATCC CRL-1573)
# T3 sequence (P36544 with tags, fused parts or gaps W77F/T225I/M226I): as the sequence (P36544 with tags, fused parts or gaps T225I/M226I) above, with W55F counted along it
# [4] = target: T3, α7-5HT3 W77F; test: fluorescence membrane potential (MP) assay, HEK 293 cells; format: cell-based, human/mouse
# [5] = target: T4, α7-5HT3 Q79G Q139M (Homo sapiens, UniProt P36544, M226I/Q139M/Q79G/T225I); test: as above; format: cell-based, human/mouse
# T4 construct: expressed in transfected cells
# T4 sequence (P36544 with tags, fused parts or gaps Q79G/Q139M/T225I/M226I): as the sequence (P36544 with tags, fused parts or gaps T225I/M226I) above, with Q57G, Q117M counted along it
# [6] = tested on: non-transduced neurons; test: excitability of non-transduced cortical neurons; format: cell-based; conditions: even at 30 μM
# Protocol: (§1) FIG. 9. Synthetic ligand-induced silencing of a cortical neuron transduced by viral gene delivery α7-GlyR L141F mutant chimeric ligand-gated ion channels. Cortical neurons were transduced with adeno-associated virus (AAV) encoding the α7-GlyR L141F mutant chimeric ligand-gated ion channel under the control of the neuron-specific synapsin promoter. A. Excitability of a transfected cortical neuron before, during, and after administration of compound 89S (10 μM). […] The neuron fires normally with <100 pA injected current before and after the compound administration. B. Excitability of a non-transduced neuron is shown for comparison. Non-transduced neurons are not affected by administration of compound 89S, even at a higher concentration (30 μM).
# (§2) The synapsin promoter, which restricts gene expression to neuronal cell types, was used to drive expression of α7-GlyR L141F in an adeno-associated virus (AAV) gene delivery vector.
# [7] = target: T5, α7-GlyR L141F in cortical neurons (AAV, synapsin promoter) (Homo sapiens, UniProt P36544, L141F); test: excitability of AAV-transduced cortical neurons; format: cell-based; conditions: 10 μM; current injection up to 500 pA
# T5 construct: expressed in transfected cells; host or cells: HEK 293 cells (A15); cortical neurons transduced with AAV, synapsin promoter (A22)
# T5 sequence (P36544 with tags, fused parts or gaps L141F): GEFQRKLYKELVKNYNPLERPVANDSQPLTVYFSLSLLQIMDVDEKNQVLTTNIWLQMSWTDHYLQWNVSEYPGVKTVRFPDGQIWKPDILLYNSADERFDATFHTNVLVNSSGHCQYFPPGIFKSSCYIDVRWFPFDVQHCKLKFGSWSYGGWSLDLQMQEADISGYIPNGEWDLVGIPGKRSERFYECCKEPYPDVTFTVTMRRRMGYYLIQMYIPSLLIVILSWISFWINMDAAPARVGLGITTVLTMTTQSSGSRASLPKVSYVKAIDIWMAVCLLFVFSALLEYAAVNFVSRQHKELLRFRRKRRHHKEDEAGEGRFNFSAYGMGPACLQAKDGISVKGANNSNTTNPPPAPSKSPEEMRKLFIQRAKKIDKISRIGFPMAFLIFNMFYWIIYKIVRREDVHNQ
# Protocol: as §1, §2
# [8] = target: T1, α7-5HT3 L141F; test: whole cell voltage clamp recordings (Iss, Ipeak); format: cell-based, human/mouse
# [9] = target: T6, α7-GlyR L141F Y115F (Homo sapiens, UniProt P36544, L141F/Y115F); test: whole cell voltage clamp recordings (Iss, Ipeak); format: cell-based; conditions: IPD GlyR
# T6 construct: expressed in transfected cells; layer 2/3 cortical neurons (A20)
# T6 sequence (P36544 with tags, fused parts or gaps Y115F/L141F): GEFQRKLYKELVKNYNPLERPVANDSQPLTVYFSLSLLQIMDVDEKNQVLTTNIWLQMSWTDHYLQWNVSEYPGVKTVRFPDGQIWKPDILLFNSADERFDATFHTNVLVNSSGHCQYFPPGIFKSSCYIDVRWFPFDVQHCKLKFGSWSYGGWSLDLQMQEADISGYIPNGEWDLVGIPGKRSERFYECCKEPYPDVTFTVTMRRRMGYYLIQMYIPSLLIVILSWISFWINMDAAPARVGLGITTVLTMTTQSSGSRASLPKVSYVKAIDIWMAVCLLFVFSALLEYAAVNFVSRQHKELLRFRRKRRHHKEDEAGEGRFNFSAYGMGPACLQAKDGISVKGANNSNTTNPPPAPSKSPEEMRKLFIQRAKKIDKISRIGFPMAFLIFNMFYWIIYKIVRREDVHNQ
# [10] = target: T7, α7-GABA C L141F (Homo sapiens, UniProt P36544, L141F); test: whole cell voltage clamp recordings (Iss, Ipeak); format: cell-based; conditions: IPD GABAC
# T7 construct: expressed in transfected cells; host or cells: HEK 293 cells
# T7 sequence (P36544 with tags, fused parts or gaps L141F): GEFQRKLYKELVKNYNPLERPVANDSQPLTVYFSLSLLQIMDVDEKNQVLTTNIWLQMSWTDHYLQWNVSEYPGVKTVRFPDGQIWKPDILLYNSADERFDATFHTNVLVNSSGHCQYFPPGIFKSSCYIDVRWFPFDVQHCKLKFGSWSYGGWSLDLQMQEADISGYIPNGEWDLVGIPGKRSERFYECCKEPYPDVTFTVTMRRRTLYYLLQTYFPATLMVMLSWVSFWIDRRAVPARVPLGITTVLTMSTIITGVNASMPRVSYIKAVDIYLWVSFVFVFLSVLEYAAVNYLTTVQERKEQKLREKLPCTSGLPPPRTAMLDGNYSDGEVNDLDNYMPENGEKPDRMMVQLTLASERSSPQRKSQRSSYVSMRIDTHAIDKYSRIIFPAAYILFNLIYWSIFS
# [11] = tested on: untransfected neurons; test: rheobase of untransfected cortical neurons; format: cell-based; conditions: even at 30 μM
# Description: (§3) FIG. 8. Chimeric α7-GlyR ligand-gated ion channel conducts chloride and greatly reduces excitability of cortical neurons in the presence of the cognate ligand. A. Current trace from voltage clamp recordings in transfected HEK 293 cells showing sustained responses of α7-GlyR and α7-GABA C mutant chimeric receptors to activation by synthetic ligands of the invention. Black line indicates time course of ligand application. […] C. Rheobase, which is the amount of current required to elicit an action potential, is not affected by expression of α7-GlyR L141F Y115F (labeled as condition: PRE). However, rheobase increases 10-fold in the presence of 10 μM compound 89S. There is no change in rheobase in untransfected neurons, even in the presence of 30 μM compound 89S. This reduction of excitability in α7-GlyR L141F Y115F expressing neurons is reversed after washout of the synthetic ligand (labeled as condition: WASH).
# (§4) This was measured by the amount of current required to evoke and action potential, also termed rheobase (FIG. 8C). We found no difference in the rheobase of α7-GlyR L141F Y115F expressing neurons and untransfected cells.
# [12] = target: T8, α7-5HT3 HC L141F (R425Q R429D R433A) (Homo sapiens, UniProt P36544, L141F/M226I/T225I); test: whole cell voltage clamp recordings (Iss, Ipeak); format: cell-based, human/mouse
# T8 construct: expressed in transfected cells; host or cells: HEK 293 cells (A14); mouse layer 2/3 cortical neurons (A19)
# T8 sequence (P36544 with tags, fused parts or gaps L141F/T225I/M226I): as the sequence (P36544 with tags, fused parts or gaps T225I/M226I) above, with L119F, R403Q, R407D, R411A counted along it
# [13] = target: T9, α7-GlyR L141F Y115F expressed in layer ⅔ cortical neurons (Homo sapiens, UniProt P36544, L141F/Y115F); test: rheobase of layer ⅔ cortical neurons; format: cell-based
# T9 construct: expressed in transfected cells; layer 2/3 cortical neurons (A20)
# T9 sequence (P36544 with tags, fused parts or gaps Y115F/L141F): as the sequence (P36544 with tags, fused parts or gaps Y115F/L141F) above
# Description: as §3, §4
# [14] = target: T10, α7-GlyR L141F (Homo sapiens, UniProt P36544, L141F); test: whole cell voltage clamp recordings (Iss, Ipeak); format: cell-based; conditions: IPD GlyR
# T10 construct: expressed in transfected cells; host or cells: HEK 293 cells (A15); cortical neurons transduced with AAV, synapsin promoter (A22)
# T10 sequence (P36544 with tags, fused parts or gaps L141F): as the sequence (P36544 with tags, fused parts or gaps Y115F/L141F) above, with F93Y counted along it
# [15] = target: T11, α7-5HT3 HC L141F expressed in layer ⅔ cortical neurons (Homo sapiens, UniProt P36544, L141F/M226I/T225I); test: cell attached recording of firing in layer ⅔ cortical neurons; format: cell-based, mouse; conditions: 3 μM
# T11 construct: expressed in transfected cells; host or cells: HEK 293 cells (A14); mouse layer 2/3 cortical neurons (A19)
# T11 sequence (P36544 with tags, fused parts or gaps L141F/T225I/M226I): as the sequence (P36544 with tags, fused parts or gaps T225I/M226I) above, with L119F, R403Q, R407D, R411A counted along it
# Description: FIG. 7. High conductance chimeric cationic ligand-gated ion channel activates layer ⅔ cortical neurons. A. Current trace from voltage clamp recordings in HEK 293 cells transfected with high conductance (HC) α7-5HT3 L141F receptors showing sustained response of the receptor to compound 89S. B. Cell attached extracellular recording of action currents from mouse layer ⅔ cortical neurons transfected with HC α7-5HT3 L141F. In addition to the mutation in the ligand binding domain (e.g., L141F), these receptors contain high conductance inducing mutations in the α7-5HT3 sequence: R425Q R429D R433A in SEQ ID NO: 1.
# To develop a neuron activating cation channel, we further modified the α7-5HT3 channel with three previously described mutations that were reported to provide a 100-fold increase in conductance: R425Q R429D R433A.
# [16] = target: T12, α7-5HT3 Q79G (Homo sapiens, UniProt P36544, M226I/Q79G/T225I); test: fluorescence membrane potential (MP) assay, HEK 293 cells; format: cell-based, human/mouse; conditions: read-out: EC50-MP; α7 Q79G, IPD 5HT3; value (s.e.m.)
# T12 construct: expressed in transfected cells; host or cells: HEK 293 cells (ATCC CRL-1573)
# T12 sequence (P36544 with tags, fused parts or gaps Q79G/T225I/M226I): as the sequence (P36544 with tags, fused parts or gaps T225I/M226I) above, with Q57G counted along it
# [17] = target: T12, α7-5HT3 Q79G; test: whole cell voltage clamp recordings (Iss, Ipeak); format: cell-based, human/mouse
# [18] = target: T13, α7-5HT3 Y210F (Homo sapiens, UniProt P36544, M226I/T225I/Y210F); test: efficacy on ACh-insensitive mutant; format: cell-based, human/mouse
# T13 construct: expressed in transfected cells; host or cells: not restated
# T13 sequence (P36544 with tags, fused parts or gaps Y210F/T225I/M226I): as the sequence (P36544 with tags, fused parts or gaps T225I/M226I) above, with Y188F counted along it
# [19] = target: T14, α7-5HT3 Y115F (Homo sapiens, UniProt P36544, M226I/T225I/Y115F); test: efficacy on ACh-insensitive mutant; format: cell-based, human/mouse
# T14 construct: expressed in transfected cells; host or cells: not restated
# T14 sequence (P36544 with tags, fused parts or gaps Y115F/T225I/M226I): as the sequence (P36544 with tags, fused parts or gaps T225I/M226I) above, with Y93F counted along it
# [20] = target: T2, α7-5HT3 wt chimeric receptor; test: whole cell voltage clamp recordings (Iss, Ipeak); format: cell-based, human/mouse
# [21] = read-out: EC50-Ipeak, peak current, IPD 5HT3
# [22] = read-out: EC50-Iss, steady state current, IPD 5HT3
# [23] = EC50-Ipeak, peak current, *complex: multiphasic dose response
compound,measurement,setting,value
"COc1ccccc1C(=O)N[C@@H]1CN2CCC1CC2 [Compound 19S, (S)-2-methoxy-N-(quinuclidin-3-yl)benzamide]",EC50,[1],1.4 µM
same,activity against α7-5HT3 wt (unmodified) receptor,[2],did not induce activate
"O=C(N[C@@H]1CN2CCC1CC2)c1ccc(-c2ccccc2)cc1 [Compound 28S, (S)—N-(quinuclidin-3-yl)biphenyl-4-carboxamide TFA]",EC50,[3]; [21],11.3 µM
same,EC50,[3]; [22],2.4 µM
same,activity against α7-5HT3 wt (unmodified) receptor,[2],did not induce activate
"O=C(N[C@@H]1CN2CCC1CC2)c1ccc(-c2cccs2)cc1 [Compound 34S, (S)—N-(quinuclidin-3-yl)-4-(thiophen-2-yl)benzamide]",EC50,"[4]; α7 W77F, IPD 5HT3; value (s.e.m.); read-out: EC50-MP",1.4 µM
same,activity against α7-5HT3 wt (unmodified) receptor,[2],did not induce activate
"CS(=O)(=O)c1ccc(C(=O)N[C@H]2CN3CCC2CC3)cc1 [Compound 38R, (R)-4-(methylsulfonyl)-N-(quinuclidin-3-yl)benzamide TFA]",activity against α7-5HT3 wt (unmodified) receptor,[2]; TFA,no activity; also recorded: did not induce activate
same,"fold improvement in potency (EC50), α7-5HT3 Q79G Q139M relative to α7-5HT3 Q79G",[5]; EC50MP,8 fold
same,EC50,"[5]; read-out: EC50-MP, α7 Q79G Q139M, IPD 5HT3, value (s.e.m.)",0.23 ± 0.07 µM
"COc1ccc(C(=O)N[C@@H]2CN3CCC2CC3)c(OC)c1 [Compound 88S, (S)-2,4-dimethoxy-N-(quinuclidin-3-yl)benzamide]",EC50,[1],0.1 ± 0.1 µM
same,activity against α7-5HT3 wt (unmodified) receptor,[2],no activity
"COc1ccc(OC)c(C(=O)N[C@@H]2CN3CCC2CC3)c1 [Compound 89S, (S)-2,5-dimethoxy-N-(quinuclidin-3-yl)benzamide]",excitability of non-transduced neurons,[6],unaffected; also recorded: not affected
same,excitability (silencing) of transduced neurons,[7],rendered sensitive to silencing; also recorded: poorly excitable
same,EC50,[8]; [21],3.2 µM
same,EC50,[8]; [22],0.7 µM
same,EC50,"[9]; EC50-Ipeak, peak current",6.9 µM
same,EC50,"[9]; EC50-Iss, steady state current",5.2 µM
same,selectivity for L141F relative to other mutant receptors,[1]; FIG. 5 dose response curves,selective
same,EC50,[1],0.4 ± 0.1 µM
same,EC50,"[10]; EC50-Ipeak, peak current",8.8 µM
same,EC50,"[10]; EC50-Iss, steady state current",4.9 µM
same,change in rheobase in untransfected neurons,[11],no change
same,EC50,"[12]; read-out: EC50-Ipeak, peak current, IPD 5HT3 HC",2.3 µM
same,EC50,"[12]; read-out: EC50-Iss, steady state current, IPD 5HT3 HC",1.5 µM
same,activity against α7-5HT3 wt (unmodified) receptor,[2],no activity
same,increase of rheobase,[13]; 10 μM,10 fold
same,reversibility of the effect on neuronal excitability after washout,[13]; washed away with drug-free buffer,rapidly reversible; also recorded: reversed
same,EC50,"[14]; EC50-Iss, steady state current",1.8 µM
same,EC50-Ipeak,"[14]; peak current, *complex: multiphasic dose response",*complex
same,firing rate of neurons,[15],sustainably increased
"COc1ccc(Cl)cc1C(=O)N[C@@H]1CN2CCC1CC2 [Compound 118S, (S)-5-chloro-2-methoxy-N-(quinuclidin-3-yl)benzamide TFA]",EC50,[14]; [23],3.2 µM
same,EC50,"[14]; EC50-Iss, steady state current",3 µM
"COc1ccc(F)cc1C(=O)N[C@@H]1CN2CCC1CC2 [Compound 119S, (S)-5-fluoro-2-methoxy-N-(quinuclidin-3-yl)benzamide TFA]",EC50,[14]; [23],3.8 µM
same,EC50,"[14]; EC50-Iss, steady state current",2.5 µM
"O=C(N[C@@H]1CN2CCC1CC2)c1ccc(-c2ccc(F)cc2)cc1 [Compound 132S, (S)-4′-fluoro-N-(quinuclidin-3-yl)biphenyl-4-carboxamide TFA]",selective activation of α7-5HT3 W77F over receptors with Q79G and L141F mutations,[4]; FIG. 5 dose response curves,selectively activated
same,EC50,"[4]; read-out: EC50-MP; α7 W77F, IPD 5HT3; value (s.e.m.)",4.3 ± 0.5 µM
"CCCc1ccc(C(=O)N[C@@H]2CN3CCC2CC3)cc1 [Compound 165S, (S)-4-propyl-N-(quinuclidin-3-yl)benzamide TFA]",EC50,[16],1.9 µM
same,EC50,[17]; [21],5.9 µM
same,EC50,[17]; [22],0.9 µM
c1ccc2c(c1)CC1C(=NN2)C2CCN1CC2 (stereo not drawn) [Compound 212],EC50,[16],> 100 µM
same,EC50,[1],0.75 µM
same,EC50,[2],> 100 µM
O=C(N[C@H]1CN2CCC1CC2)c1ccc(Cl)cc1 [PNU-282987],efficacy with α7-5HT3 carrying Y210F,[18],greatly reduced or eliminated
same,efficacy with α7-5HT3 carrying Y115F,[19],greatly reduced or eliminated
same,EC50,[2],0.06 µM
same,EC50,"[20]; peak current, IPD 5HT3, read-out: EC50-Ipeak",0.8 µM
same,EC50,"[20]; steady state current, IPD 5HT3, read-out: EC50-Iss",0.09 µM
